Each structure is given as a SMILES string. Square brackets hold non-standard residues; d marks the D form. Peptide text beside a SMILES is read from it. * marks the point of attachment. Cys(free,S-linked) = N[C@@H](CS*)C(=O)O; d2Thi = N[C@H](Cc1cccs1)C(=O)O; dAbu = CC[C@@H](N)C(=O)O

Assay [1] relates to normal rats (Sprague Dawley). In words: In vivo efficacy in normal rat model after a single dose (plasma parathyroid hormone, serum calcium). The conditions noted are these: 3 mg/kg intravenous single dose; for serum calcium level: FIG. 3; for plasma parathyroid hormone level: within 4 h, FIG. 2. From the text:
3.4 Evaluation of In Vivo Efficacy of Some of the Compounds Disclosed Herein in a Normal Rat Model after a Single Dose 3.4.1 Objective: To Evaluate the Efficacy of the Test Compounds in Reducing Plasma Parathyroid Hormone Levels after a Single Dose in a Normal Rat Model.
SPF normal adult rats (Sprague Dawley, or SD) with weight of 250-350 g were fed with normal diet in an animal room for 7 days. Rats were randomized into groups of 6, half female and half male, and numbered. One day before the start of treatment, 540 μL of blood was collected from each rat, and the plasma parathyroid hormone level and the serum calcium concentration were measured as baseline. The plasma was separated by K2-EDTA anticoagulation. Blood was collected through jugular vein and preserved on ice after collection. The whole blood was centrifuged at 6,800 rpm for 6 minutes at 2-8° C. The supernatant, i.e., the plasma, was collected and preserved at 2-8° C. For serum separation, blood was collected through jugular vein, let stand at room temperature for 1 h, and centrifuged at room temperature at 3,500 rpm for 10 min. The supernatant, i.e., the serum, was collected and preserved at room temperature. The animals were fasted overnight with free access to water the day before treatment. The day after blood sampling, example compounds 13, 17, 31 and etelcalcetide (AMG-416) were dissolved in a phosphate buffered saline (PBS, Gibco). The rats were intravenously administered with example compounds 13, 17, 31 or etelcalcetide 3 mg/kg or an equal volume of PBS buffer. Subsequently, blood samples were collected as per the following procedures for measuring the parameters. 100 μL of blood was collected at 1 h, 2 h and 4 h post-dose, and the plasma was separated according to the procedures above. The plasma parathyroid hormone levels were measured using the Rat Intact PTH ELISA Kit (Quidel—Immunotopics, Cat. #: 60-2500; ELISA: Enzyme-linked immunosorbent assay) according to the kit instructions. The detailed procedures are as follows: using the streptavidin-preplated reaction strips provided in the kit, 25 μL of reference standard, control or plasma samples were added to the wells. Biotinylated rat parathyroid hormone antibody and rat parathyroid hormone/HRP binding antibody were mixed at a ratio of 1:1, and 100 μL of the mixed solution was added to each well. The reaction strip was sealed with a sealing film, wrapped with an aluminum foil for storage in dark, and shaken on a horizontal shaker at room temperature for 3 h at a rotation speed of 220 rpm. The solutions in the wells were discarded. 350 μL of cleaning working solution was added to the wells for washing and then discarded; 5 washes were performed with the same procedures. Finally the wells were dried. To each well was added 150 μL of horseradish peroxidase ELISA substrate. The reaction strip was sealed with a sealing film, wrapped with an aluminum foil for storage in dark, and shaken on a horizontal shaker at room temperature for 30 min at a rotation speed of 180-220 rpm. 100 μL of ELISA terminating solution was added to each well, and the strip was shaken at 180-220 rpm for 1 min on a horizontal shaker at room temperature. The absorbance at 450 nm in each well was detected within 10 min after the addition of the ELISA terminating solution, while the absorbance at 620 nm was subtracted as background. A mixture of horseradish peroxidase ELISA substrate 150 μL and ELISA terminating solution 100 μL was used as the blank control in the absorbance detection. A standard curve according to the absorbance of the reference standard was plotted, and the actual plasma parathyroid hormone concentration was calculated according to the absorbance of other samples and the standard curve. The determination of the serum calcium concentration was conducted according to the procedures of the relevant kit.

The next assay deals with 5/6 nephrectomized rats. In words: In vivo efficacy in 5/6 nephrectomized rat model after continuous administration (plasma parathyroid hormone, serum calcium). From the text:
3.5.1 Objective: to evaluate the efficacy of some of the compounds disclosed herein in reducing plasma parathyroid hormone level and serum calcium level after continuous administration in a 5/6 nephrectomized rat model.
The rats were adapted. After anesthesia, ⅔ of the left kidney was surgically resected, and after 1 week of recovery, the right kidney was resected to establish the 5/6 nephrectomized rat model. After the second resection, the animals were normally fed for 2 weeks, tested for creatinine (CREA) and plasma parathyroid hormone level, and randomized as per the parathyroid hormone level into 4 groups of 10, including normal saline group, compound 17—low dose group, compound 17—high dose group and etelcalcetide group. After randomization, the normal saline group, compound 17—low dose group, compound 17—high dose group and etelcalcetide group were respectively administered with 1 dose of normal saline, 1 mg/kg of compound 17, 2 mg/kg of compound 17 and 1 mg/kg of etelcalcetide through the tail vein daily for 28 days. During the treatment period, parameters such as animal weight, plasma parathyroid hormone level and serum calcium were detected. The first day of treatment was taken as day 1.

In the case of `CC(=O)N[C@H](CSSC[C@H](N)C(=O)O)C(=O)N[C@H](CCCNC(=N)N)C(=O)N[C@H](CCCNC(=N)N)C(=O)N[C@H](Cc1cccs1)C(=O)N[C@H](CCCNC(=N)N)C(=O)N[C@H](C)C(=O)N[C@H](CCCNC(=N)N)C(N)=O` [Compound 13, Ac-c(C)-r-r-(D-2-Thi)-r-a-r-NH2] (Ac-[dC](Cys(free,S-linked))[dR][dR][d2Thi][dR][dA][dR]-NH2), in assay [1], the serum calcium level entry is on record as “corresponding reduction” and the “plasma parathyroid hormone level” value is reported as “completely reduced”.

Turning to `CC[C@@H](NC(=O)[C@@H](CCCNC(=N)N)NC(=O)[C@@H](CCCNC(=N)N)NC(=O)[C@@H](CSSC[C@H](N)C(=O)O)NC(C)=O)C(=O)N[C@H](CCCNC(=N)N)C(=O)N[C@H](C)C(=O)N[C@H](CCCNC(=N)N)C(N)=O` [Compound 17, Ac-c(C)-r-r-(D-Abu)-r-a-r-NH2] (Ac-[dC](Cys(free,S-linked))[dR][dR][dAbu][dR][dA][dR]-NH2), in the assay on 5/6 nephrectomized rats (1 mg/kg and 2 mg/kg daily via tail vein for 28 days), the “plasma parathyroid hormone level compared with the normal saline group” value is “reduced the plasma parathyroid hormone level in rats in a dose dependent manner”. Further, the “suppression of plasma parathyroid hormone level versus etelcalcetide at the same dose” value in the assay on 5/6 nephrectomized rats (1 mg/kg, 6 h and 16 h post-dose, FIG. 4) was “slightly superior or comparable magnitude to that of etelcalcetide”. For the same molecule, in the assay with 5/6 nephrectomized rats (after administration on days 1, 14 and 28), the serum calcium reduction entry is given as “reversible serum calcium reduction”. Also, the “persistence to reduce serum calcium levels versus etelcalcetide at the same dose” value with 5/6 nephrectomized rats (day 28) is “superior and significantly different”. Further, in the assay with 5/6 nephrectomized rats (days 1, 14 and 28, FIG. 5), the “maximal reduction in serum calcium versus etelcalcetide at the same dose” value is “comparable to etelcalcetide”. Besides, the “extent of serum calcium reduction with the period of treatment” value in the assay with 5/6 nephrectomized rats (minimum of serum calcium on days 14 and 28 compared to day 1) is “did not increase with the period of treatment”. Besides, in assay [1], the serum calcium level entry is recorded as “corresponding reduction” and the “plasma parathyroid hormone level” value is “completely reduced”.

For the molecule `CC[C@@H](NC(=O)[C@@H](CCCNC(=N)N)NC(=O)[C@@H](CCCNC(=N)N)NC(=O)[C@@H](CSSC[C@H](N)C(=O)O)NC(C)=O)C(=O)N[C@H](CCCNC(=N)N)C(=O)N[C@H](CO)C(=O)N[C@H](CCCNC(=N)N)C(N)=O` [Compound 31, Ac-c(C)-r-r-(D-Abu)-r-s-r-NH2] (Ac-[dC](Cys(free,S-linked))[dR][dR][dAbu][dR][dS][dR]-NH2), in assay [1], the serum calcium level entry is recorded as “corresponding reduction” and the “plasma parathyroid hormone level” value is “completely reduced”.

Source of the values: US20230041996A1, “CALCIUM-SENSING RECEPTOR AGONIST COMPOUND AND APPLICATION THEREOF” (BEIJING TUO JIE BIOPHARMACEUTICAL CO. LTD., priority 2019, published 2023).
